Columns and labels:
Type in all cases: in vivo
[1] = test system: Spodoptera littoralis; assay: Spodoptera littoralis (Egyptian cotton leafworm) leaf disc test; conditions: foliar, 72 h, application rate 200 ppm, cotton leaf discs, L1 larvae, mortality, feeding behavior, growth regulation 3 DAT
Text: Spodoptera littoralis (Egyptian Cotton Leafworm): Cotton leaf discs were placed on agar in a 24-well microtiter plate and sprayed with test solutions at an application rate of 200 ppm. After drying, the leaf discs were infested with 5 L1 larvae. The samples were checked for mortality, feeding behavior, and growth regulation 3 days after treatment (DAT).

[2] = test system: Heliothis virescens; assay: Heliothis virescens (tobacco budworm) egg/larval test on artificial diet; conditions: 96 h, application rate 200 ppm (concentration in well 18 ppm), eggs on artificial diet, 4 days
Protocol: Eggs (0-24 h old) were placed in 24-well microtiter plate on artificial diet and treated with test solutions at an application rate of 200 ppm (concentration in well 18 ppm) by pipetting. After an incubation period of 4 days, samples were checked for egg mortality, larval mortality, and growth regulation.

[3] = test system: Plutella xylostella; assay: Plutella xylostella (diamond back moth) larval test on artificial diet; conditions: 144 h, application rate 200 ppm (concentration in well 18 ppm), L2 larvae on artificial diet, 6 days
Protocol: (§1) 24-well microtiter plate (MTP) with artificial diet was treated with test solutions at an application rate of 200 ppm (concentration in well 18 ppm) by pipetting. After drying, the MTP's were infested with L2 larvae (7-12 per well). After an incubation period of 6 days, samples were checked for larval mortality and growth regulation.

[4] = test system: Diabrotica balteata; assay: Diabrotica balteata (corn root worm) larval test on artificial diet; conditions: 120 h, application rate 200 ppm (concentration in well 18 ppm), L2 larvae on artificial diet, 5 days
Protocol: as §1, with “Diabrotica balteata (Corn Root Worm): A 24-well” for “24-well”, “(6-10” for “(7-12”, “5” for “6”

[5] = test system: Myzus persicae; assay: Myzus persicae (green peach aphid), systemic test; conditions: 144 h, application rate 12.5 ppm, roots of pea seedlings in test solution, 6 days
Text: Myzus persicae (Green peach aphid), systemic test: Roots of pea seedlings, infested with an aphid population of mixed ages, are placed directly in the test solutions at an application rate of 12.5 ppm. 6 days after introduction, samples are checked for mortality and special effects on the plant. The following compounds gave at least 80% control of Myzus persicae: […]

[6] = test system: Thrips tabaci; assay: Thrips tabaci (onion thrips) leaf disc test; conditions: foliar, 168 h, application rate 200 ppm, sunflower leaf discs, 7 days
Protocol: Sunflower leaf discs were placed on agar in a 24-well microtiter plate and sprayed with test solutions at an application rate of 200 ppm. After drying, the leaf discs were infested with a thrips population of mixed ages. After an incubation period of 7 days, samples were checked for mortality.

[7] = test system: Tetranychus urticae; assay: Tetranychus urticae (two-spotted spider mite) leaf disc test; conditions: foliar, 192 h, application rate 200 ppm, bean leaf discs, 8 days
Text: Bean leaf discs on agar in 24-well microtiter plates were sprayed with test solutions at an application rate of 200 ppm. After drying, the leaf discs are infested with mite populations of mixed ages. 8 days later, discs are checked for egg mortality, larval mortality, and adult mortality.

[8] = test system: Heliothis virescens; assay: Heliothis virescens (tobacco budworm) egg/larval test on artificial diet; conditions: 96 h; for pest or weed control at 0.8 ppm: application rate 0.8 ppm; for pest or weed control at 3 ppm: application rate 3 ppm
[9] = test system: Plutella xylostella; assay: Plutella xylostella (diamond back moth) larval test on artificial diet; conditions: 144 h; for pest or weed control at 0.8 ppm: application rate 0.8 ppm; for pest or weed control at 3 ppm: application rate 3 ppm
[10] = test system: Diabrotica balteata; assay: Diabrotica balteata (corn root worm) larval test on artificial diet; conditions: 120 h, read-out: Control/% Diabrotica balteata Corn rootworm; for pest or weed control at 3 ppm: application rate 3 ppm; for pest or weed control at 12 ppm: application rate 12 ppm; for pest or weed control at 50 ppm: application rate 50 ppm

| Structure (SMILES) | pest or weed control at 200 ppm [1] | pest or weed control at 200 ppm [2] | pest or weed control at 200 ppm [3] | pest or weed control at 200 ppm [4] | pest or weed control at 12.5 ppm [5] | pest or weed control at 200 ppm [6] | pest or weed control at 200 ppm [7] | pest or weed control at 0.8 ppm [8] | pest or weed control at 3 ppm [8] | pest or weed control at 0.8 ppm [9] | pest or weed control at 3 ppm [9] | pest or weed control at 3 ppm [10] | pest or weed control at 12 ppm [10] | pest or weed control at 50 ppm [10] | pest or weed control at 0.2 ppm ([8]; application rate 0.2 ppm) | pest or weed control at 0.2 ppm ([9]; application rate 0.2 ppm) | pest or weed control at 0.8 ppm ([10]; application rate 0.8 ppm) |
| --- | --- | --- | --- | --- | --- | --- | --- | --- | --- | --- | --- | --- | --- | --- | --- | --- | --- |
| Cc1cc(C2=NOC(c3cc(Cl)cc(Cl)c3)(C(F)(F)F)C2)ccc1SCC(=O)NCC(F)(F)F (stereo not drawn) [Compound A49, 2-{2-Methyl-4-[5-(3,5-Dichloro-phenyl)-5-trifluoromethyl-4,5-dihydro-isoxazol-3-yl]-phenylsulfanyl}-N-(2,2,2-trifluoro-ethyl)-acetamide] | ≥ 80% | ≥ 80% | ≥ 80% | ≥ 80% | ≥ 80% | ≥ 80% | ≥ 80% | 80% | 100% | 80% | 100% | 100% | 100% |  |  |  |  |
| Cc1cc(C2=NOC(c3cc(Cl)cc(Cl)c3)(C(F)(F)F)C2)ccc1[S+]([O-])CC(=O)NCC(F)(F)F (stereo not drawn) [Compound A50, 2-{4-[5-(3,5-Dichloro-phenyl)-5-trifluoromethyl-4,5-dihydro-isoxazol-3-yl]-2-methyl-benzenesulfinyl}-N-(2,2,2-trifluoro-ethyl)-acetamide] | ≥ 80% | ≥ 80% | ≥ 80% | ≥ 80% | ≥ 80% | ≥ 80% | ≥ 80% | 80% | 80% | 80% | 100% | 75% | 100% | 100% |  |  |  |
| Cc1cc(C2=NOC(c3cc(Cl)cc(Cl)c3)(C(F)(F)F)C2)ccc1S(=O)(=O)CC(=O)NCC(F)(F)F (stereo not drawn) [Compound A51, 2-{4-[5-(3,5-Dichloro-phenyl)-5-trifluoromethyl-4,5-dihydro-isoxazol-3-yl]-2-methyl-benzenesulfonyl}-N-(2,2,2-trifluoro-ethyl)-acetamide] | ≥ 80% | ≥ 80% | ≥ 80% | ≥ 80% | ≥ 80% | ≥ 80% | ≥ 80% | 80% | 80% | 80% | 100% |  | 100% | 100% |  |  |  |
| Cc1cc(C2=NO[C@@](c3cc(Cl)cc(Cl)c3)(C(F)(F)F)C2)ccc1SCC(=O)NCC(F)(F)F [Compound C1, 2-{4-[(S)-5-(3,5-Dichloro-phenyl)-5-trifluoromethyl-4,5-dihydro-isoxazol-3-yl]-2-methyl-phenylsulfanyl}-N-(2,2,2-trifluoro-ethyl)-acetamide] |  | ≥ 80% | ≥ 80% |  | ≥ 80% | ≥ 80% | ≥ 80% | 80% | 100% | 100% | 100% | 100% | 100% |  | 80% | 80% | 80% |

From patent US8895587B2, “Insecticidal compounds based on arylthioacetamide derivatives” (Syngenta Participations AG, priority 2011, dated 2014)
